According to BigSolDB 2.1:

O=c1cc(-c2ccc(O)cc2)oc2cc(O)cc(O)c12
solubility (mole fraction)
Details	in acetone	in ethanol	in ethyl acetate	in methanol	in n-butanol	in n-propanol	in water
288.2 K	0.000338	0.000244	0.000172	0.000118	0.000478	0.000343	7e-07
298.2 K	0.000367	0.000295	0.000239	0.000148	0.000568	0.000401	1.03e-06
308.2 K	0.000451	0.000346	0.000323	0.000179	0.0007	0.000473	1.57e-06
318.2 K	0.00054	0.000397	0.000442	0.000219	0.000822	0.000564	2.11e-06
328.2 K	0.000654	0.000449	0.000548	0.000254	0.000934	0.000677	2.81e-06
